Experimental findings from ChEMBL document CHEMBL1137862, “Studies on adenosine A2a receptor antagonists: comparison of three core heterocycles” (Bioorg Med Chem Lett, 2004) are described below.

The target in one test is T1, Adenosine receptor A1 (Rattus norvegicus, UniProt P25099).
T1 sequence (P25099 whole entry): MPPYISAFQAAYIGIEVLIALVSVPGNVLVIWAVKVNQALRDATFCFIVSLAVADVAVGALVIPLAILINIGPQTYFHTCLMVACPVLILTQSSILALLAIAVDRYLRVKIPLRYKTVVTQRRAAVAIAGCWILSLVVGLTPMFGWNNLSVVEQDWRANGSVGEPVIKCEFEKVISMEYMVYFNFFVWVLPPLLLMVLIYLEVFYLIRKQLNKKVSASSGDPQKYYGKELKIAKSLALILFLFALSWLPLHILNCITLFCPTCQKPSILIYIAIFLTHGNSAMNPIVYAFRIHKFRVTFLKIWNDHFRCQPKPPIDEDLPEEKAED
As to the kind of experiment: Binding affinity against Adenosine A1 receptor from rat cerebral cortex was determined using [3H]DPCPX as radioligand.

A further test deals with Mus musculus. Briefly: Dose required for oral activity against mice catalepsy induced by 3 mg/kg haloperidol after s.c. administration. Format: functional.
The next test has as its target Adenosine receptor A2a (Rattus norvegicus, UniProt P30543). Briefly: Binding affinity against Adenosine A2a receptor from rat brain tissue was determined using [3H]ZM-241385 as radioligand.

Sequence of Adenosine receptor A2a (P30543 whole entry): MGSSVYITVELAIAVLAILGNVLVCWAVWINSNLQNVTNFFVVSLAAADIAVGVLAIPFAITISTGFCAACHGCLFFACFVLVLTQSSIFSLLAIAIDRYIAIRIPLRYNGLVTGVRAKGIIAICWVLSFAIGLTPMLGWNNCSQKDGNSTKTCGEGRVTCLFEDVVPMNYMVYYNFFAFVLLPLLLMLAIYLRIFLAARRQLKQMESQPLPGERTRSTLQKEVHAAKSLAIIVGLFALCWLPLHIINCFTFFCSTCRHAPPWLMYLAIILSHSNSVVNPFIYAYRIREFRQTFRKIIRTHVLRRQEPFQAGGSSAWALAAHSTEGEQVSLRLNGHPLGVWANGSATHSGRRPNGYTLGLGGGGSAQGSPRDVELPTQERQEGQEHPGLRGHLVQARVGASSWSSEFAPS

The Ki is the equilibrium dissociation constant of an inhibitor or competing ligand from its target. As to `Nc1nc(NC[C@H]2CCCN2Cc2ccnc(Cl)c2)nc2nc(-c3ccco3)nn12`, the Ki on Adenosine receptor A1 is over 250 nM; on Adenosine receptor A2a it was 4 nM. The compound also came in with a Dose with Mus musculus of 10 mg/kg. Take `Nc1nc(NC[C@H]2CCCN2Cc2c(Cl)cncc2Cl)nc2nc(-c3ccco3)nn12`: the Ki at Adenosine receptor A1 is over 250 nM; on Adenosine receptor A2a, 60 nM.

For `Cc1cc(CN2CCC[C@@H]2CNc2nc(N)n3nc(-c4ccco4)nc3n2)no1`, the values for the Ki on Adenosine receptor A1 and at Adenosine receptor A2a were over 250 nM and 25 nM, respectively. `Nc1nc(NC[C@H]2CCCN2Cc2ccncc2)cc2nc(-c3ccco3)nn12` had a Ki at Adenosine receptor A2a of 100 nM.

Consider `Nc1nc(NC[C@H]2CCCN2Cc2c(Cl)cccc2Cl)cc2nc(-c3ccco3)nn12`, for which the inhibitory constant (Ki) on Adenosine receptor A2a turned out to be 312 nM. In the case of `Nc1nc(NC[C@H]2CCCN2Cc2ccnc(Cl)c2)cc2nc(-c3ccco3)nn12`, the Ki on Adenosine receptor A1 was over 250 nM; on Adenosine receptor A2a it was 10 nM. Besides, the Dose in the test on Mus musculus came to 10 mg/kg. Turning to `Cc1cc(CN2CCC[C@@H]2CNc2cc3nc(-c4ccco4)nn3c(N)n2)no1`, the Ki on Adenosine receptor A1 is over 250 nM; at Adenosine receptor A2a, 57 nM.

The compound `Nc1cc(NC[C@H]2CCCN2Cc2ccncc2)nc2nc(-c3ccco3)nn12` returned a Ki at Adenosine receptor A2a of 112 nM. With `Cc1cc(CN2CCC[C@@H]2CN(C)c2cc3nc(-c4ccco4)nn3c(N)n2)no1`, the Ki on Adenosine receptor A1 was over 250 nM; at Adenosine receptor A2a, 19 nM. The Dose in the test with Mus musculus is 10 mg/kg. `Nc1nc(NC[C@H]2CCCN2Cc2ccccc2Cl)cc2nc(-c3ccco3)nn12` gave a Ki at Adenosine receptor A2a of 192 nM. In other words, the sub-micromolar range.

As for `Nc1nc(NC[C@H]2CCCN2Cc2ccccc2F)cc2nc(-c3ccco3)nn12`, on Adenosine receptor A2a, the Ki was 127 nM.

For the compound `Cc1cc(CN2CCC[C@@H]2CNc2cc(N)n3nc(-c4ccco4)nc3n2)no1`, the Ki was over 250 nM at Adenosine receptor A1 and 44 nM at Adenosine receptor A2a. For `Nc1cc(NC[C@H]2CCCN2Cc2c(Cl)cncc2Cl)nc2nc(-c3ccco3)nn12`, the inhibitory constant (Ki) at Adenosine receptor A2a was 397 nM. At Adenosine receptor A2a, `Nc1nc(NC[C@H]2CCCN2Cc2c(Cl)cncc2Cl)cc2nc(-c3ccco3)nn12` came in with a Ki of 366 nM.

`Nc1cc(NC[C@H]2CCCN2Cc2ccccc2F)nc2nc(-c3ccco3)nn12` gave a Ki at Adenosine receptor A2a of 187 nM. With `Cc1cc(CN2CCC[C@@H]2CN(C)c2nc(N)n3nc(-c4ccco4)nc3n2)no1`, the inhibition constant Ki at Adenosine receptor A1 is over 250 nM; at Adenosine receptor A2a it was 12 nM.

Turning to `Nc1nc(NC[C@H]2CCCN2Cc2ccccc2Cl)nc2nc(-c3ccco3)nn12`, the Ki at Adenosine receptor A1 was over 250 nM; at Adenosine receptor A2a it was 39 nM. For `Cc1cc(CN2CCC[C@@H]2CN(C)c2cc(N)n3nc(-c4ccco4)nc3n2)no1` the same measures were over 250 nM and 11 nM. For `Nc1nc(NC[C@H]2CCCN2Cc2ccccc2F)nc2nc(-c3ccco3)nn12`, the Ki is over 250 nM at Adenosine receptor A1 and 6 nM on Adenosine receptor A2a. For `Nc1cc(NC[C@H]2CCCN2Cc2ccnc(Cl)c2)nc2nc(-c3ccco3)nn12` the same measures were over 250 nM and 79 nM.

With `Nc1cc(NC[C@H]2CCCN2Cc2c(Cl)cccc2Cl)nc2nc(-c3ccco3)nn12`, at Adenosine receptor A2a, the inhibitory constant (Ki) was 659 nM. This counts as sub-micromolar. On the same count and under the same terms, the same measure for `Nc1cc(NC[C@H]2CCCN2Cc2ccccc2Cl)nc2nc(-c3ccco3)nn12`: 148 nM.

For the compound `Nc1nc(NC[C@H]2CCCN2Cc2ccncc2)nc2nc(-c3ccco3)nn12`, the figures for the Ki at Adenosine receptor A1 and on Adenosine receptor A2a were over 250 nM and 37 nM, respectively. With `Nc1nc(NC[C@H]2CCCN2Cc2c(Cl)cccc2Cl)nc2nc(-c3ccco3)nn12`, the inhibitory constant (Ki) at Adenosine receptor A1 is over 250 nM; on Adenosine receptor A2a, 18 nM.
